Measurements from patent US9163044B2, “Carbon monoxide releasing molecules and uses thereof” (Alfama, Inc., priority 2011, dated 2015).

Legend:
[1] = CO release kinetics in 50 mM HEPES buffer (pH 7.4), GC-RCP; type: physicochemical; settings: for CO equivalents released in 24 hours in the dark / CO equivalents released in 24 hours under light: 50 mM HEPES buffer
Procedure: The quantization of the released CO was performed according to Vreman et al. Anal. Biochem. (2005) 341: 280-289 using a Gas Chromatograph with a Reducing Compound Photometer detector (GC-RCP; Peak Laboratories, Mountain View, Calif.), which allows quantifying CO in gas mixtures at concentrations as low as 1-2 parts per billion (ppb).
General Method for the Determination of CO Release in HEPES Buffer
The CO release kinetics of all compounds was evaluated in 50 mM HEPES buffer (pH 7.4) in a sealed 8-mL vial. […] Since light activation can release CO from molybdenum carbonyl compounds, CO release was determined with solutions in closed, clear glass vials kept under light (on the laboratory bench under regular laboratory lighting) or in the dark (wrapped in aluminum foil and kept inside a cardboard box). Gas samples (from 10 μL up to 500 μL) of the vial headspace (7 ml volume) were removed with a gas-tight syringe at 15, 30, 60, 120, 240, 360 min, and 24 hours after start of the incubation. The gas samples were injected into sealed vials containing air (8 mL) for dilution. The entire gas volume of the vials (8 mL) was transferred with carrier gas to the GC-RCP and analyzed for CO. The GC-RCP had been calibrated with gas containing a known amount of CO. The calibration curve had been established starting with gas from a cylinder which contained synthetic air with 30 ppm CO (Linde, Cat. No. 14960013) and preparing dilutions in 8-mL vials as described above.
The CO equivalents released at each time point from each compound were determined by the following equation: (CO released (pmol)×number of CO ligands in the molecule)/([CO] in the compound (pmol)).

[2] = tissue CO distribution in CD-1 female mice; type: in vivo; settings: for CO levels in the liver compared with blood, kidney, heart and lung tissues (in words): 50 mg/kg i.v., CD-1 female mice
Source text: Carbon monoxide-releasing molecules (CO-RMs) are carriers of carbon monoxide (CO) and can release CO in vivo. CO can bind to hemoglobin in the blood and to various heme proteins in cells. Vreman et al. Anal Biochem 341:280-289 describes a method to release CO bound to tissues into the gas phase, and quantify it using GC-RCP chromatography. We applied this methodology to assay CO in various tissues of mice treated with CO-RMs (see Example 2, herein). However, since the CO release method of Vreman (in vitro incubation with sulfosalicylic acid) also releases CO from the CO-RM, the CO released from tissue samples represents CO bound to tissue proteins and CO from CO-RM compound accumulated in tissue. For CO-RM compounds with slow CO release rates in vivo, the CO measured at the earliest sampling point (5 min after CO-RM administration) may therefore mostly be a measure for the tissue distribution of the intact CO-RM.
The compound was dissolved in PBS and the acids neutralized with 3 eq. NaOH (from a NaOH stock solution 2.5M). The pH was brought down to about 7.5 by adding HCl (from a stock solution 1 M). The compound was then administered i.v. (50 mg/kg in 150 μL) to two CD-1 female mice (Charles River). The mice were warmed for ten minutes under an infrared lamp to facilitate the i.v. administration into a tail vein. Five and twenty minutes after the dosing, the two mice were anesthetized with IsoFluorane, and the blood was collected from the retro-orbital plexus using a Pasteur pipette containing ˜20 μL of heparin solution. The animal was opened; the portal vein was cut and the organs were perfused by injecting 10-15 mL of cold PBS in the left ventricle of the heart. Then the heart, kidneys, liver and lung were collected, briefly washed with potassium phosphate buffer, dried with a paper towel and snap frozen in liquid nitrogen. Samples of the freshly collected blood were transferred to AVOXimeter 4000 cuvettes (ITC) to measure the levels of carboxyhemoglobin (COHb), oxyhemoglobin (O2Hb) and methemoglobin (MetHb) using a portable AVOXimeter 4000 CO-oximeter. The results are shown as mean percentage of total hemoglobin species in circulation. The organs and blood were conserved at −20° C. until the CO quantization was done.
For CO quantization, the protocol described by Vreman et al was followed. The organs were cut into small pieces, which were weighed and 4 volumes of water (a volume corresponding to four times the weight of the tissue sample) were added to each organ sample. The tissues were homogenized using a tissue tearer. Aliquots of homogenate ([…]) were placed into vials to which were added water ([…]) and sulfosalicylic acid (SSA, 5 μL, 30% [wt/vol]) immediately before they were closed with a gas-tight septum cap. The vials were incubated on ice for at least 20 min before being analyzed by GC-RCP (in later experiments, the incubation time was extended to 45 minutes). The amount of CO was calculated using a calibration curve prepared from CO standards. […] COHb was determined using an oximeter (AVOXimeter 4000, USA).
Table 6 provides the CO distribution in blood, heart, liver, lung and kidney following Compound 3b administration at 50 mg/kg by […]. CO was assayed by GC-RCP, 5 and 20 minutes after administration of the compound. The CO concentration in the several organs is normalized to the amount of CO quantified in the blood (CO concentration as fraction of concentration in blood 50 mg/kg Compound 3b injected i.v. at t=0; CO assayed in tissues by GC at t=5 min and t=20 min).

[3] = in vitro metabolism study: decay on incubation with liver microsomes; type: in vitro ADME; settings: one hour / 60 minutes incubation
Procedure: Sixty percent decay could release up to 1.8 molar equivalents of CO. […] Therefore liver microsomes accelerate the decomposition of the compound. […] Microsomes were incubated with Compound 1b using closed vials to enable quantitative measurement of the released CO. As a control, Compound 1b was incubated under similar conditions in the absence of microsomes.
In an in vitro metabolism study of the CO release kinetics of Compound 3b, it was determined that 80% of Compound 3b decayed in 60 minutes incubation with liver microsomes. In order to investigate if this accelerated decomposition of Compound 3b in the presence of microsomes was inducing a faster CO release from the compound, the CO release profile of Compound 3b in the presence of liver microsomes was determined. Microsomes were incubated with Compound 3b using closed vials to enable quantitative measurement of the released CO. As a control, Compound 3b was incubated under similar conditions in the absence of microsomes. […] The initial rate of CO release is 0.0297 CO equivalents (297.22 pmol) per minute in the presence of microsomes and 0.0072 CO equivalents (72.265 pmol) per minute in the absence of microsomes.

CC([N+]#[C][Mo-6]([C]#[O+])([C]#[O+])([C]#[O+])([C]#[N+]C(C)C(=O)O)[C]#[N+]C(C)C(=O)O)C(=O)O (centres unmarked) [Compound 2b, tricarbonyl[tris(2-isocyanopropionic acid)]Mo(0)]
CO equivalents released in 24 hours in the dark [1]: 1.2 CO equivalents
CO equivalents released in 24 hours under light ([1]; under light): 1.5 CO equivalents
time to release 0.5 CO equivalents under light ([1]; 50 mM HEPES pH 7.4, 50 μM, under light): about 90 minutes
CO levels in the liver compared with blood, kidney, heart and lung tissues (in words) [2]: increased CO levels in the liver

[C-]#[N+]C(C)(C)C(=O)O.[C-]#[N+]C(C)(C)C(=O)O.[C-]#[N+]C(C)(C)C(=O)O.[C-]#[O+].[C-]#[O+].[C-]#[O+].[Mo] [Compound 3b, tricarbonyl[tris(2-isocyano-2-methyl-propionic acid)]Mo(0)]
CO equivalents released in 24 hours in the dark [1]: 1.3 CO equivalents
CO equivalents released in 24 hours under light ([1]; under light): 1.8 CO equivalents
compound decayed on incubation with liver microsomes [3]: 80%
CO levels in the liver compared with blood, kidney, heart and lung tissues (in words) [2]: increased CO levels in the liver
CO concentration as fraction of concentration in blood: Blood, 5 min ([2]; 50 mg/kg, blood, t=5 min): 1
CO concentration as fraction of concentration in blood: Blood, 20 min ([2]; 50 mg/kg, blood, t=20 min): 1
CO concentration as fraction of concentration in blood: Heart, 5 min ([2]; 50 mg/kg, heart, t=5 min): 0.046 ± 0.012
CO concentration as fraction of concentration in blood: Heart, 20 min ([2]; 50 mg/kg, heart, t=20 min): 0.072 ± 0.055
CO concentration as fraction of concentration in blood: Kidney, 5 min ([2]; 50 mg/kg, kidney, t=5 min): 0.419 ± 0.295
CO concentration as fraction of concentration in blood: Kidney, 20 min ([2]; 50 mg/kg, kidney, t=20 min): 0.074 ± 0.028
CO concentration as fraction of concentration in blood: Liver, 5 min ([2]; 50 mg/kg, liver, t=5 min): 5.26 ± 3.18
CO concentration as fraction of concentration in blood: Liver, 20 min ([2]; 50 mg/kg, liver, t=20 min): 0.163 ± 0.062
CO concentration as fraction of concentration in blood: Lung, 5 min ([2]; 50 mg/kg, lung, t=5 min): 0.049 ± 0.020
CO concentration as fraction of concentration in blood: Lung, 20 min ([2]; 50 mg/kg, lung, t=20 min): 0.060 ± 0.046
CO concentration in the liver relative to blood ([2]; five minutes after i.v. injection): five times higher in the liver than in blood

tricarbonyl[tris(isocyanoacetic acid)]Mo(0) [Compound 1b]
CO equivalents released in 24 hours in the dark [1]: 1.4 CO equivalents
CO equivalents released in 24 hours under light ([1]; under light): 1.6 CO equivalents
compound decayed on incubation with liver microsomes [3]: 60%
CO levels in the liver compared with blood, kidney, heart and lung tissues (in words) [2]: no preferential accumulation of CO in the liver
